# Measurements published in publication PMC9611727, “Optimization of a Novel Mandelamide-Derived Pyrrolopyrimidine Series of PERK Inhibitors” (Pharmaceutics, 2022).
# Key:
# Assay in all cases: scanMAX kinase panel
# Format in all cases: binding
# Settings in all cases: read-out: % Control; for remaining binding at 1 µM: 1000 nM
# CDK11 = molecular target: T1, CDK11 (Homo sapiens, UniProt Q9BWU1)
# T1 construct: purchased DiscoverX scanMAX
# Description: (§1) Supplemental Table S2. scanMAXSM Kinome Assay Results. Complete tabulated data of all 468 kinases from the panel, including
# (§2) 403 wild-type and 65 mutant isoforms. […] Cmpd 11 and Cmpd 24
# EPHB6 = molecular target: T2, EPHB6 (Homo sapiens, UniProt O15197)
# T2 construct: purchased DiscoverX scanMAX
# T2 sequence (O15197 32-1021): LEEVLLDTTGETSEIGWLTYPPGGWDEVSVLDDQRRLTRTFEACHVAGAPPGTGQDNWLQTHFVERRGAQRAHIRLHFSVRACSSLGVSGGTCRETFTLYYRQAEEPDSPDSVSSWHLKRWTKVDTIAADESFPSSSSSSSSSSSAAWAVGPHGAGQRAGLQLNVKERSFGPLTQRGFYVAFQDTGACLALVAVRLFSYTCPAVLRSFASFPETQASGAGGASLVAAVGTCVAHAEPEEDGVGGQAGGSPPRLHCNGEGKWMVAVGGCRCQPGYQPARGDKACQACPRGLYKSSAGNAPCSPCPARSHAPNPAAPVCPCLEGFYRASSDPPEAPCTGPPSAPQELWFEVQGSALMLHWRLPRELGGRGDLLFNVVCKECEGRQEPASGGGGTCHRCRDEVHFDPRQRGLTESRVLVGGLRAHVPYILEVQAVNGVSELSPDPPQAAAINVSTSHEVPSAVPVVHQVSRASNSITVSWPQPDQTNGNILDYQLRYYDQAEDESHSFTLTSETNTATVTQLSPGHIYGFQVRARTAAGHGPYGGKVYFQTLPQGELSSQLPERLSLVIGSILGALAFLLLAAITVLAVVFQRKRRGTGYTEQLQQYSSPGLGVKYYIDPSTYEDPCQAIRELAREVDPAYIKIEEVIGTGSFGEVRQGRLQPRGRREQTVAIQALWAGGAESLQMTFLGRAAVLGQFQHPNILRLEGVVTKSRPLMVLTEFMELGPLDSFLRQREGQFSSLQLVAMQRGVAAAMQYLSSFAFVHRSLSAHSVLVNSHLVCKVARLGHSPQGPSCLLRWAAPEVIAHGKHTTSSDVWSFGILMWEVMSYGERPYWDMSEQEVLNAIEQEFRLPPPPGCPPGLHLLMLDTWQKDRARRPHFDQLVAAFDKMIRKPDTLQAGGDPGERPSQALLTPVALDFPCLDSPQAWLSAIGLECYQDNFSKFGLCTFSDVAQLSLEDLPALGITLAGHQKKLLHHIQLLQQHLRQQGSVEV
# Description: as §1, §2
# HIPK4 = molecular target: T3, HIPK4 (Homo sapiens, UniProt Q8NE63)
# T3 construct: purchased DiscoverX scanMAX
# T3 sequence (Q8NE63 1-616): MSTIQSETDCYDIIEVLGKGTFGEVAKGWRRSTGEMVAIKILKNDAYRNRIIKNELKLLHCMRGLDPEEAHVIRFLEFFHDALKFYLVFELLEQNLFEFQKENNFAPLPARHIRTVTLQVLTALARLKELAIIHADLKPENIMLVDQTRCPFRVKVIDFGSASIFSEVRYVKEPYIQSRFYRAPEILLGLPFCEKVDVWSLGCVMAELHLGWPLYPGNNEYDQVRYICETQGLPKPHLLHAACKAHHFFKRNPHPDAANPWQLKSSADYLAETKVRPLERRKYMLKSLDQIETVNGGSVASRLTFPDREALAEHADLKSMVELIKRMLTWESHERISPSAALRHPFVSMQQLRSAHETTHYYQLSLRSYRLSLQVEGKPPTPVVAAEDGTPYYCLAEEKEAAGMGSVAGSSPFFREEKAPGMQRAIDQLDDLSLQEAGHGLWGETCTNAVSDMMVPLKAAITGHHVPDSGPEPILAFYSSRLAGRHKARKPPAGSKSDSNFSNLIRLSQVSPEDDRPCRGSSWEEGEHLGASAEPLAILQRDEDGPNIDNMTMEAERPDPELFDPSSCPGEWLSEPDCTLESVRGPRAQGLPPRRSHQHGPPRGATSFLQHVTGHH
# Description: as §1, §2
# LOK = molecular target: T4, LOK (Homo sapiens, UniProt O94804)
# T4 construct: purchased DiscoverX scanMAX
# T4 sequence (O94804 whole entry): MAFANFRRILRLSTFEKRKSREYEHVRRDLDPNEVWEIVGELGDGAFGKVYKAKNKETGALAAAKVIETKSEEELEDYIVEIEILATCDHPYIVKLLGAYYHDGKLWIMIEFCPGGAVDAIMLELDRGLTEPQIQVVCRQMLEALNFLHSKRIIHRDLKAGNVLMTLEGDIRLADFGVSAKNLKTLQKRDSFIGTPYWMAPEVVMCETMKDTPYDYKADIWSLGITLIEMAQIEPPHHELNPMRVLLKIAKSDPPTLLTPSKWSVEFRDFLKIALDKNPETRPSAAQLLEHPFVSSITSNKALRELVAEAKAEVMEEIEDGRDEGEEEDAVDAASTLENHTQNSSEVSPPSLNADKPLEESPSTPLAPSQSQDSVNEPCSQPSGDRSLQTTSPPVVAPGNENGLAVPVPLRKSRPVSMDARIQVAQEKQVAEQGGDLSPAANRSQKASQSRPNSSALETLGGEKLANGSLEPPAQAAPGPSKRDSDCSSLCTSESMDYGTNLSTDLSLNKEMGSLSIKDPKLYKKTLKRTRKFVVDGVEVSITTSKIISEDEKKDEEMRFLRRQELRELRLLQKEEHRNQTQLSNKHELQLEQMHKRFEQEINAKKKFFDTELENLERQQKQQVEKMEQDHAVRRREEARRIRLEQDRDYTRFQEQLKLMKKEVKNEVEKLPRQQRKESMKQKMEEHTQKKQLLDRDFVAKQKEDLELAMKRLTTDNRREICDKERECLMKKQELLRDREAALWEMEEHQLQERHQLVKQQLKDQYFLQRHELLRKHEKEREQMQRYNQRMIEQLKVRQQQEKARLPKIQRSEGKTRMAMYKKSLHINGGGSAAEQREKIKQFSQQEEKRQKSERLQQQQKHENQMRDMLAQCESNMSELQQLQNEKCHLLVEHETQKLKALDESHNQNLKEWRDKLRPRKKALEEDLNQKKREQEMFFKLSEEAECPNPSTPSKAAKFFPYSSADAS
# Description: as §1, §2
# RIOK2 = molecular target: T5, RIOK2 (Homo sapiens, UniProt Q9BVS4)
# T5 construct: purchased DiscoverX (scanMAX panel)
# T5 sequence (Q9BVS4 whole entry): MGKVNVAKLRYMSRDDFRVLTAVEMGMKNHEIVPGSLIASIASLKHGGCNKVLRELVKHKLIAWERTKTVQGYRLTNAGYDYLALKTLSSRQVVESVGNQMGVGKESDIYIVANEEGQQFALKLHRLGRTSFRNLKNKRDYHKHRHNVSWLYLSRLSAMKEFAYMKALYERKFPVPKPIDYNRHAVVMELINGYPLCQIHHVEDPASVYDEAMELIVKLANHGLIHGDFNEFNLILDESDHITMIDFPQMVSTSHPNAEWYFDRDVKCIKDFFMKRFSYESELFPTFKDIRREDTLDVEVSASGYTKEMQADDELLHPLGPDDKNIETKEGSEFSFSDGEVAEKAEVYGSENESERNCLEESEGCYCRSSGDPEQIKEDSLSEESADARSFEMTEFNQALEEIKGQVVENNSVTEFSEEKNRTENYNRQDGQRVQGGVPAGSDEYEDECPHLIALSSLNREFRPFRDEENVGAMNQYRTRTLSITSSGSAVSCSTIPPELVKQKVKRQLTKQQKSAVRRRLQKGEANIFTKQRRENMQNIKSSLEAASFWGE
# Description: as §1, §2
# YANK2 = molecular target: T6, YANK2 (Homo sapiens, UniProt Q9NY57)
# T6 construct: purchased DiscoverX (scanMAX panel)
# T6 sequence (Q9NY57 whole entry): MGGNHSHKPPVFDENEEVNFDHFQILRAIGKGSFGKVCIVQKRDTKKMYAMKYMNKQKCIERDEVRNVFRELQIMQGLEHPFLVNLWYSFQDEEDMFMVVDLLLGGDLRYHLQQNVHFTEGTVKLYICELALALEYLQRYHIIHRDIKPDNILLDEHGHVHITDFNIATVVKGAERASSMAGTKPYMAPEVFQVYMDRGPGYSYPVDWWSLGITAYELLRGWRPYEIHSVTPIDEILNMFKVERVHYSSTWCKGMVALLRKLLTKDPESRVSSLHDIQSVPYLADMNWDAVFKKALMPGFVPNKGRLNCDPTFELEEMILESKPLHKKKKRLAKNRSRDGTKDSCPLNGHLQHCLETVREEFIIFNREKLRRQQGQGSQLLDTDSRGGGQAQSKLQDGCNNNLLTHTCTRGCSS
# Description: as §1, §2
# FLT3 = molecular target: T7, FLT3 (Homo sapiens, UniProt P36888); parameters: purchased DiscoverX scanMAX
# T7 sequence (P36888 27-993): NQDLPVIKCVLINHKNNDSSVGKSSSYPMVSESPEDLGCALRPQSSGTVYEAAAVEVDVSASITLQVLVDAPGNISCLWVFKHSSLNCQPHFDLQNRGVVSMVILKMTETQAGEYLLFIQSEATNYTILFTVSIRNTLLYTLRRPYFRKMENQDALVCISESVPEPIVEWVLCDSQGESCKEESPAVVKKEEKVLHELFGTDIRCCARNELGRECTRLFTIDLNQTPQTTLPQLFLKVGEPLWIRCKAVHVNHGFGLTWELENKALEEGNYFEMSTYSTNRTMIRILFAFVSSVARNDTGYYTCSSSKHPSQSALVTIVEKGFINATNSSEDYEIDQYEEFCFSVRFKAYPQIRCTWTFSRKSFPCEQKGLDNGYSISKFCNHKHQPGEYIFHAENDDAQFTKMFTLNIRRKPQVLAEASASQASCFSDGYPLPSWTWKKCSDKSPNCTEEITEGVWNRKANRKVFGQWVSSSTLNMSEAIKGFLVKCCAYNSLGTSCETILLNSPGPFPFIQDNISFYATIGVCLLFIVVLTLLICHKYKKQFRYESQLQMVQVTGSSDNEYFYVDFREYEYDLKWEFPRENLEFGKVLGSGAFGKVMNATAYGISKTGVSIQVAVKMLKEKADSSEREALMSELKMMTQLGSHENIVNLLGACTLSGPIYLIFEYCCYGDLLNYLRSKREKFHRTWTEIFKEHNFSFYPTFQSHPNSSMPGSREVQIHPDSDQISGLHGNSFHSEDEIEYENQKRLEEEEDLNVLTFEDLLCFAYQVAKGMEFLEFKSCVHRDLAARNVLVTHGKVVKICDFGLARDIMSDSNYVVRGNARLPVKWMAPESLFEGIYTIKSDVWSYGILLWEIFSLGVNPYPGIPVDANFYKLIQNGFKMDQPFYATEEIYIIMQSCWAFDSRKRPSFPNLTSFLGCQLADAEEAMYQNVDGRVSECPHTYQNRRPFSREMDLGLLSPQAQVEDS
# Description: as §1, §2
# T1 sequence (Q9BWU1 whole entry): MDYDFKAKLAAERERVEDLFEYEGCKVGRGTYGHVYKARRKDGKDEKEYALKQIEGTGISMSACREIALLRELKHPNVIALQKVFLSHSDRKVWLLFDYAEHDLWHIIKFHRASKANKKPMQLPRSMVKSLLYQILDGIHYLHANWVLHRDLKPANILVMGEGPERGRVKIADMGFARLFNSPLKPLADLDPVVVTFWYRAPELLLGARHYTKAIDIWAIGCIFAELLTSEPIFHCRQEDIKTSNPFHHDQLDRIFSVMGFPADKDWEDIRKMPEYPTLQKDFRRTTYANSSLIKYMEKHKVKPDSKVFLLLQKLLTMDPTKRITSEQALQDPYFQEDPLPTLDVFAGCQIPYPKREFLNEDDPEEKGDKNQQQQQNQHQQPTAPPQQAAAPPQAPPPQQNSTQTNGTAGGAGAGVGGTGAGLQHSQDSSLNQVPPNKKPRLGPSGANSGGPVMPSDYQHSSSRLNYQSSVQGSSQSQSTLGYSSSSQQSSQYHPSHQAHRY
smiles,measurement,setting,value
"Cc1cc(NC(=O)[C@H](O)c2cccc(F)c2)ccc1-c1cn(C)c2ncnc(N)c12 [Compound 11, (R)-N-(4-(4-amino-7-methyl-7H-pyrrolo[2,3-d]pyrimidin-5-yl)-3-methylphenyl)-2-(3-fluorophenyl)-2-hydroxy acetamide]",remaining binding at 1 µM,CDK11,1%
same,remaining binding at 1 µM,EPHB6,2.6%
same,remaining binding at 1 µM,HIPK4,16%
same,remaining binding at 1 µM,LOK,4%
same,remaining binding at 1 µM,RIOK2,20%
same,remaining binding at 1 µM,YANK2,11%
same,remaining binding at 1 µM,FLT3,4.3%
Cc1nc(N)c2c(-c3ccc(NC(=O)[C@H](O)c4cccc(F)c4)cc3C)cn(C)c2n1 [Compound 24],remaining binding at 1 µM,CDK11,89%
same,remaining binding at 1 µM,EPHB6,100%
same,remaining binding at 1 µM,HIPK4,100%
same,remaining binding at 1 µM,LOK,88%
same,remaining binding at 1 µM,RIOK2,89%
same,remaining binding at 1 µM,YANK2,100%
same,remaining binding at 1 µM,FLT3,66%
Cc1nc(N)c2c(-c3ccc(NC(=O)[C@H](O)c4cccc(C(F)(F)F)c4)cc3C)cn(C)c2n1 [Compound 26],remaining binding at 0.1 µM,CDK11; 100 nM,89%
same,remaining binding at 1 µM,CDK11,8.2%
same,remaining binding at 0.1 µM,EPHB6; 100 nM,94%
same,remaining binding at 1 µM,EPHB6,48%
same,remaining binding at 0.1 µM,HIPK4; 100 nM,69%
same,remaining binding at 1 µM,HIPK4,3.8%
same,remaining binding at 0.1 µM,LOK; 100 nM,94%
same,remaining binding at 1 µM,LOK,12%
same,remaining binding at 0.1 µM,RIOK2; 100 nM,91%
same,remaining binding at 1 µM,RIOK2,92%
same,remaining binding at 0.1 µM,YANK2; 100 nM,92%
same,remaining binding at 1 µM,YANK2,63%
same,remaining binding at 0.1 µM,FLT3; 100 nM,41%
same,remaining binding at 1 µM,FLT3,0%
